Experimental data: patent US5681954A, “Piperazine derivatives” (Daiichi Pharmaceutical Co., Ltd., priority 1993, dated 1997)

Columns and labels:
[1] = target: T1, Ca/Calmodulin-Dependent PDE (Bos taurus, UniProt P62157); experiment: Calmodulin (CaM) inhibitory activity: inhibition of CaM-potentiated cyclic nucleotide phosphodiesterase (PDE); assay type: biochemical; conditions: CaM and PDE from bovine brain, [3H]-cGMP, 30° C., 10 minutes, pH 7.5; read-out: IC50 (concentration showing 50% inhibition of PDE activity potentiated by CaM)
T1 construct: CaM from bovine brain; from tissue; host or cells: bovine brain

[2] = system: Nitrogen-induced Hypoxia Model in Mouse; experiment: Activity on Nitrogen-induced Hypoxia Model in Mouse; assay type: in vivo; conditions: 30 mg/kg, p.o., 60 minutes before nitrogen, over control group (100%)
Description: Nine to ten mice per group were each orally given […] of a test compound. After 60 minutes from the administration, each mouse was put in a 500 ml-volume transparent container having a vent hole; and nitrogen gas was introduced into the container at a rate of 5000 ml/min. The time from the start of nitrogen introduction to respiratory standstill was measured, and a rate of increase of the time over that of a control group (100%) was obtained.

`COc1ccc(Cn2nc(CCN3CCN(c4cccc(Cl)c4C)CC3)c3cc(OC)c(OC)cc32)cc1OC` [Example 17, 3-(2-(4-(3-Chloro-2-methylphenyl)-1-piperazinyl)ethyl)-5,6-dimethoxy-1-(3,4-dimethoxybenzyl)-1H-indazole] was tested, and the IC50 [1] was 3.1 µM and the “Rate of Increase of Survival Time” value [2] was 19.2%.
Compound `COc1cc2c(CCN3CCN(c4cccc(Cl)c4C)CC3)nn(Cc3c[nH]cn3)c2cc1OC` [Example 23, 3-(2-(4-(3-Chloro-2-methylphenyl)-1-piperazinyl)ethyl)-5,6-dimethoxy-1-(4-imidazolylmethyl)-1H-indazole] has an IC50 [1] of 5.5 µM.
For `COc1cc2[nH]nc(CCN3CCN(c4cccc(Cl)c4C)CC3)c2cc1OC` [Example 81], the IC50 [1] was 9.4 µM.
